# Test results published in ChEMBL document CHEMBL5096221, “Discovery of a Highly Potent and Orally Bioavailable STAT3 Dual Phosphorylation Inhibitor for Pancreatic Cancer Treatment” (J Med Chem, 2022).
# Activity calls are given as the source filed them. The rule behind the calls is not given here.
# How the values were obtained:
# [1] = Toxicity in BALB/c mouse xenografted with human BXPC-3 cells assessed as effect on spleen at 30 mg/kg,po administrated once daily for 8 weeks by H and E staining based microscopic analysis; assay type: organism-based; details: in vivo, 1344 h
# [2] = Toxicity in BALB/c mouse xenografted with human BXPC-3 cells assessed as effect on kidney at 30 mg/kg,po administrated once daily for 8 weeks by H and E staining based microscopic analysis; assay type: organism-based; details: in vivo, 1344 h
# [3] = Volume of distribution at steady state in BALB/c mouse at 1 mg/kg,iv measured upto 24 hrs by LC-MS/MS analysis; assay type: ADME, organism-based; details: BALB/c, in vivo, read-out: Vdss
# [4] = molecular target: T1, Signal transducer and activator of transcription 3 (Homo sapiens, UniProt P40763); assay: Inhibition of STAT3 in human Capan-2 cells assessed as inhibition of STAT3 phosphorylation at Tyr 705 at 1 to 30 nM incubated for 22 to 24 hrs by western blot analysis; assay type: cell-based; details: dose 1-30 nM, time 22-24 hrs, DDE = dose-dependent effect
# T1 sequence (P40763 whole entry): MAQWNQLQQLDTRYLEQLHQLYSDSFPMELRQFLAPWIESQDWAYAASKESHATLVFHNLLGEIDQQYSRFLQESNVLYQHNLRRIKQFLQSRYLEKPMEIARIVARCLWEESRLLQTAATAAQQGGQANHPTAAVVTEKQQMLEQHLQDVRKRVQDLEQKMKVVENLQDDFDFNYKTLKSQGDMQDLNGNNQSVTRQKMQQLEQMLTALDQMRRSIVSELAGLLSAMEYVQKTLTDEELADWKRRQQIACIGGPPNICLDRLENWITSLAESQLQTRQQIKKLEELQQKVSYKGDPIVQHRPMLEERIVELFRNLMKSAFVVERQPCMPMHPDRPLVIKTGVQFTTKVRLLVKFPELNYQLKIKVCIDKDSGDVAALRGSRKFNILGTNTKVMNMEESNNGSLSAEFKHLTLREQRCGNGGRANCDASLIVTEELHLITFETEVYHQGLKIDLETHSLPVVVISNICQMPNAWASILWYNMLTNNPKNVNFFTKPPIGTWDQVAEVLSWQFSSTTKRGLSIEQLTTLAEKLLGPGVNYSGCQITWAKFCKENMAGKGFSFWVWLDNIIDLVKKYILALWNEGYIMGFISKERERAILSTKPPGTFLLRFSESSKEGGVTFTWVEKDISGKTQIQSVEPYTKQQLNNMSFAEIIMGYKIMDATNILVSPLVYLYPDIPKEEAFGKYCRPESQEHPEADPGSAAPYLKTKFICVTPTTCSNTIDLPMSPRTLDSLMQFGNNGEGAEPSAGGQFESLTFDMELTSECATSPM
# [5] = Toxicity in BALB/c mouse xenografted with human BXPC-3 cells assessed as effect on lung at 10 mg/kg,po administrated once daily for 8 weeks by H and E staining based microscopic analysis; assay type: organism-based; details: in vivo, 1344 h
# [6] = molecular target: T1, Signal transducer and activator of transcription 3; assay: Inhibition of STAT3 in human BXPC-3 cells assessed as inhibition of STAT3 phosphorylation at Ser 727 at 10 nM incubated for 22 to 24 hrs by western blot analysis; assay type: cell-based; details: time 22-24 hrs
structure (smiles),measurement,setting,value
COc1ccc(-c2noc(-c3cnc(Oc4ccc5cc(C(=O)N6CCN(Cc7ccc(OCC(F)(F)F)cc7)CC6)n(C)c5c4)cn3)n2)cc1,Activity,[1],Non-Toxic
same,Activity,[2],Non-Toxic
same,Vd,[3],1.27 L/kg
same,inhibition,[4],Dde
same,Activity,[5],Non-Toxic
same,inhibition,[6],Active
